Assay results taken from ChEMBL document CHEMBL6087415, “Discovery of new fungal jumonji H3K27 demethylase inhibitors for the treatment of Cryptococcus neoformans and Candida auris infections” (Eur J Med Chem, 2025).
≈ marks a conversion by molar mass, not a printed value. Calls of active or inactive are those of the source. No cut-off for these calls is given here.

Experiments:
[1] = test system: Cryptococcus neoformans; assay: Antifungal activity against Cryptococcus neoformans H99 assessed as reduction in fungal growth; type: functional
[2] = test system: [Candida] auris; assay: Antifungal activity against Candida auris 0029 assessed as reduction in fungal growth; type: functional; conditions: Candidozyma auris
[3] = test system: [Candida] auris; assay: Antifungal activity against Candida auris ATCC 15448 assessed as reduction in fungal growth; type: functional; conditions: Candidozyma auris
[4] = test system: Candida albicans; assay: Synergistic antifungal activity against Candida albicans assessed as inhibition of fungal growth incubated in presence of fluconazole; type: functional, organism-based
[5] = test system: [Candida] auris; assay: Synergistic antifungal activity against Candida auris 0029 assessed as inhibition of fungal growth incubated in presence of fluconazole; type: functional, organism-based; conditions: Candidozyma auris
[6] = Solubility of compound in MeOH/H2O at pH 7 by HPLC analysis; type: physicochemical
[7] = Cytotoxicity against HUVEC cells; type: toxicity, cell-based; conditions: human
[8] = Hemolytic activity in rabbit erythrocytes assessed as hemolysis at 10 to 100 uM relative to control; type: toxicity, cell-based, Oryctolagus cuniculus, Erythrocyte; conditions: dose 10-100 µM, read-out: Activity
[9] = test system: Cryptococcus neoformans; assay: Antifungal activity against Cryptococcus neoformans H99 assessed as inhibition of cell growth at 4 microg/ml measured for 72 hrs; type: functional, organism-based; conditions: dose 4.0 µg/ml
[10] = test system: [Candida] auris; assay: Antifungal activity against Candida auris 0029 assessed as inhibition of cell growth at 16 microg/ml measured for 72 hrs; type: functional; conditions: Candidozyma auris
[11] = test system: Cryptococcus neoformans; assay: Fungicidal activity against Cryptococcus neoformans H99; type: functional
[12] = test system: [Candida] auris; assay: Fungicidal activity against Candida auris 0029; type: functional; conditions: Candidozyma auris
[13] = test system: Cryptococcus neoformans; assay: Antibiofilm activity against Cryptococcus neoformans H99 assessed as inhibition of biofilm formation upto […] microg/ml incubated for 24 hrs by XTT reduction assay; type: functional, organism-based; conditions: dose <= 64.0 µg/ml
[14] = test system: [Candida] auris; assay: Antibiofilm activity against Candida auris 0029 assessed as inhibition of biofilm formation upto […] microg/ml incubated for 24 hrs by XTT reduction assay; type: functional, organism-based; conditions: Candidozyma auris, dose <= 64.0 µg/ml
[15] = test system: Cryptococcus neoformans; assay: Antibiofilm activity against Cryptococcus neoformans H99 assessed as inhibition of biofilm formation at 1 microg/ml incubated for 24 hrs by XTT reduction assay; type: functional, organism-based; conditions: dose 1.0 µg/ml
[16] = test system: [Candida] auris; assay: Antibiofilm activity against Candida auris 0029 assessed as inhibition of biofilm formation at 4 to 64 microg/ml incubated for 24 hrs by XTT reduction assay; type: functional, organism-based; conditions: Candidozyma auris, dose 4-64 µg/ml
[17] = test system: Cryptococcus neoformans; assay: Antibiofilm activity against Cryptococcus neoformans H99 assessed as inhibition of capsule formation at 1 microg/ml incubated for 48 hrs by laser confocal microscopic analysis; type: functional, organism-based; conditions: dose 1.0 µg/ml
[18] = test system: [Candida] auris; assay: Antibiofilm activity against Candida auris 0029 assessed as appearance of surface collapse at 4 to 16 microg/ml measured for 48 hrs by SEM analysis; type: functional, organism-based; conditions: Candidozyma auris, dose 4-16 µg/ml
[19] = test system: Cryptococcus neoformans; assay: Antibiofilm activity against Cryptococcus neoformans H99 assessed as appearance of surface collapse at 4 to 16 microg/ml measured for 48 hrs by SEM analysis; type: functional, organism-based; conditions: dose 4-16 µg/ml
[20] = test system: Cryptococcus neoformans; assay: Antibiofilm activity against Cryptococcus neoformans H99 assessed as appearance of blurred capsule at 4 microg/ml measured for 48 hrs by SEM analysis; type: functional, organism-based; conditions: dose 4.0 µg/ml
[21] = test system: Cryptococcus neoformans; assay: Induction of morphological changes in Cryptococcus neoformans H99 assessed as damaged cell membrane at 1 to 4 microg/ml by TEM analysis; type: functional, organism-based; conditions: dose 1-4 µg/ml
[22] = test system: Cryptococcus neoformans; assay: Induction of morphological changes in Cryptococcus neoformans H99 assessed as sparse capsule at 1 to 4 microg/ml by TEM analysis; type: functional, organism-based; conditions: dose 1-4 µg/ml
[23] = test system: [Candida] auris; assay: Induction of morphological changes in Candida auris 0029 assessed as cell wall damage by TEM analysis; type: functional, organism-based; conditions: Candidozyma auris
[24] = test system: [Candida] auris; assay: Induction of morphological changes in Candida auris 0029 assessed as cell membrane damage by TEM analysis; type: functional, organism-based; conditions: Candidozyma auris
[25] = Inhibition of Cryptococcus neoformans H99 JMJD3 by absorbance based analysis
[26] = Inhibition of Candida auris 0029 JMJD3 by absorbance based analysis; set-up: species or system Candidozyma auris
[27] = test system: Cryptococcus neoformans; assay: Antifungal activity against Cryptococcus neoformans H99 infected in ICR mouse assessed as reduction in fungal burden in brain at 2 to 5 mg/kg, ip administered for 5 days; type: functional, organism-based; conditions: dose 2-5 mg/kg, time 5.0 day
[28] = Metabolic stability in mouse liver microsome assessed as half life; type: ADME; conditions: liver microsomes
[29] = Metabolic stability in mouse liver microsome assessed as clearance; type: ADME; conditions: liver microsomes, read-out: CLH
[30] = test system: Cryptococcus neoformans; assay: Antifungal activity against Cryptococcus neoformans H99 assessed as reduction in fungal growth incubated for 72 hrs in presence of 1 uM Fe2+; type: functional
[31] = test system: Cryptococcus neoformans; assay: Antifungal activity against Cryptococcus neoformans H99 assessed as reduction in fungal growth incubated for 72 hrs in presence of 5 uM Fe2+; type: functional
[32] = test system: Cryptococcus neoformans; assay: Antifungal activity against Cryptococcus neoformans H99 assessed as reduction in fungal growth incubated for 72 hrs in presence of 10 uM Fe2+; type: functional
[33] = test system: Cryptococcus neoformans; assay: Antifungal activity against Cryptococcus neoformans H99 assessed as reduction in fungal growth incubated for 72 hrs in presence of 20 uM Fe2+; type: functional
[34] = test system: Cryptococcus neoformans; assay: Antifungal activity against Cryptococcus neoformans H99 assessed as reduction in fungal growth incubated for 72 hrs in presence of 40 uM Fe2+; type: functional
[35] = test system: Cryptococcus neoformans; assay: Antifungal activity against Cryptococcus neoformans H99 assessed as reduction in fungal growth incubated for 72 hrs in presence of 80 uM Fe2+; type: functional
[36] = test system: [Candida] auris; assay: Effect on sterol composition in Candida auris 0029 assessed as other sterols content at 1 microg/ml measured after 24 hrs by GC-MS analysis; type: functional, Candidozyma auris; conditions: dose 1 µg/ml
[37] = test system: [Candida] auris; assay: Effect on sterol composition in Candida auris 0029 assessed as ergosterol content at 1 microg/ml measured after 24 hrs by GC-MS analysis (reference value: 100 %); type: functional, Candidozyma auris; conditions: dose 1 µg/ml
[38] = test system: Cryptococcus neoformans; assay: Effect on sterol composition in Cryptococcus neoformans H99 assessed as ergosterol content at 1 microg/ml measured after 24 hrs by GC-MS analysis (reference value: 58.53%); type: functional; conditions: dose 1 µg/ml
[39] = test system: Cryptococcus neoformans; assay: Effect on sterol composition in Cryptococcus neoformans H99 assessed as other sterols content at 1 microg/ml measured after 24 hrs by GC-MS analysis (reference value: 41.47%); type: functional; conditions: dose 1 µg/ml
[40] = test system: [Candida] auris; assay: Antifungal activity against Candida auris 0029 infected in ICR mouse assessed as reduction in fungal burden in kidney at 2 to 5 mg/kg, ip administered for 5 days; type: functional, organism-based; conditions: Candidozyma auris, dose 2-5 mg/kg, time 5.0 day

S=c1n(-c2ccccn2)c2ccccc2n1-c1ccc(Cl)cn1
MIC80 [1]: 64 µg/mL (≈ 189 µM) | MIC80 [2]: > 64 µg/mL | MIC80 [3]: > 64 µg/mL

Fc1ccc(N/N=C(/c2ccccc2)c2ccccn2)cc1
MIC80 [1]: 32 µg/mL (≈ 110 µM) | MIC80 [2]: 64 µg/mL (≈ 220 µM) | MIC80 [3]: 32 µg/mL (≈ 110 µM)

O=c1c2ccccc2c(-c2ccccn2)nn1-c1ccc(Cl)cn1
MIC80 [1]: 64 µg/mL (≈ 191 µM) | MIC80 [2]: > 64 µg/mL | MIC80 [3]: > 64 µg/mL

Clc1cccnc1N/N=C(\c1ccccc1)c1ccccn1
MIC80 [1]: 1 µg/mL (≈ 3.24 µM) | MIC80 [2]: 4 µg/mL (≈ 13 µM) | MIC80 [3]: 0.5 µg/mL (≈ 1.62 µM)

COc1ccc(NN=C(c2ccccn2)c2ccccn2)nc1
Activity [4]: inactive | Activity [5]: inactive | solubility [6]: 79.2 µg/mL (≈ 259 µM) | MIC80 [1]: 0.5 µg/mL (≈ 1.64 µM) | MIC80 [2]: 2 µg/mL (≈ 6.55 µM) | MIC80 [3]: 0.125 µg/mL (≈ 0.409 µM) | IC50 [7]: 246 nM | hemolysis at 100 µM [8]: < 3% | Activity [9]: Active | inhibition at 16 µg/mL [10]: 100% | MFC [11]: 8 µg/mL (≈ 26.2 µM) | MFC [12]: 64 µg/mL (≈ 210 µM) | Activity [13]: Active | Activity [14]: Active | Activity [15]: Active | Activity [16]: Active | Activity [17]: Active | Activity [18]: Active | Activity [19]: Active | Activity [20]: Active | Activity [21]: Active | Activity [22]: Active | Activity [23]: Active | Activity [24]: Active | IC50 [25]: 134 nM | IC50 [26]: 12 nM | Activity [27]: Active | half-life [28]: 50.6 min | CLint scaled [29]: 108 mL/min/kg | MIC [30]: 2 µg/mL | MIC [31]: 4 µg/mL | MIC [32]: 8 µg/mL | MIC [33]: 16 µg/mL | MIC [34]: 16 µg/mL | MIC [35]: 32 µg/mL | Activity [36]: 43.07% | Activity [37]: 56.93% | Activity [38]: 43.82% | Activity [39]: 41.52% | Activity [40]: Active

Clc1ccc(N/N=C(\c2ccc(Cl)cc2)c2ccccn2)cc1
MIC80 [1]: 32 µg/mL (≈ 93.5 µM) | MIC80 [2]: > 64 µg/mL | MIC80 [3]: > 64 µg/mL

N#Cc1ccc(NN=C(c2ccccn2)c2ccccn2)nc1
solubility [6]: 3.93 µg/mL (≈ 13.1 µM) | MIC80 [1]: 0.5 µg/mL (≈ 1.66 µM) | MIC80 [2]: 2 µg/mL (≈ 6.66 µM) | MIC80 [3]: 0.125 µg/mL (≈ 0.416 µM)

Fc1ccc(N/N=C(\c2ccccc2)c2ccccn2)cc1
MIC80 [1]: 32 µg/mL (≈ 110 µM) | MIC80 [2]: 32 µg/mL (≈ 110 µM) | MIC80 [3]: 8 µg/mL (≈ 27.5 µM)

Clc1ccc(N/N=C(/c2ccc(Cl)cc2)c2ccccn2)cc1
MIC80 [1]: 32 µg/mL (≈ 93.5 µM) | MIC80 [2]: 64 µg/mL (≈ 187 µM) | MIC80 [3]: 64 µg/mL (≈ 187 µM)

Cc1ccc(NC(=O)C(c2ccccc2)c2ccccn2)nc1 (stereo not drawn)
MIC80 [1]: 32 µg/mL (≈ 105 µM) | MIC80 [2]: > 64 µg/mL | MIC80 [3]: 64 µg/mL (≈ 211 µM)
